These results are taken from article PMC2813863, “In Vivo Evaluation of α7 Nicotinic Acetylcholine Receptor Agonists [^11C]A-582941 and [^11C]A-844606 in Mice and Conscious Monkeys” (PLoS ONE, 2010).

Values joined by “and” are separate entries in the source; they are usually repeats but may differ in a detail not shown here. Equal values may be shown once. Read-outs that look alike come from different tables or passages of the source. Some results are limits rather than exact numbers.

One may read the log D as the decadic logarithm of the distribution of all forms, ionised or not, between an organic phase and buffer at a given pH. In general, IC50 refers to the midpoint of a concentration-inhibition curve. As usually defined, the Kd is a measure of binding affinity in units of concentration.

The target in series [1] is α4β2. Particulars: cited from earlier work.
For series [2], the target named is α4β2. To be noted: read-out: K i α4β2; cited from earlier work.
In series [3] the target is α7 nAChRs (Mus musculus, UniProt P49582). Particulars: in vivo. How it is done:
In the other group of mice, a blocking experiment to determine the α7 nAChRs-specific regional brain uptake of the tracers was carried out. Each tracer (2 MBq/0.055–0.096 nmol) was co-injected with each of the following blockers into mice, and 15 ([^11C]A-582941) or 30 ([^11C]A-844606) min later the mice were killed (n = 5) and the tissue uptake of ^11C was expressed as the %ID/g. […] Each blocker was dissolved in 1N HCl to 40 mg/ml and diluted up to 0.4 mg/ml with saline. The co-injected dose was 1 mg/kg. In the control mice the same amount of 0.01 N HCl in saline was co-injected.

For a further series, the system named is >75 binding sites. Particulars: 10 µM, exception 5-HT3 receptors; cited from earlier work.
The conditions of series [4]: cited from earlier work.
For series [5], the system named is 5-HT3 receptors. Particulars: cited from earlier work.
For series [6], the target named is heteromeric α4β2 subtypes. Particulars: rat brain membranes; read-out: K i, [^3H]cytisine binding; cited from earlier work.
Series [7] addresses 5-HT3 receptors. Description: Displacement of [^3H]-BRL 43694 (Granisetron) binding.
In series [8] the target is α7 nAChRs (Macaca mulatta, UniProt Q866A2). To be noted: rhesus monkey, in vivo. From the text: Four young-adult male rhesus monkeys (Macaca mulatta) weighing from 4 to 6 kg were used for PET measurements. The monkeys were trained for the protocol as described previously. The magnetic resonance images (MRI) of all monkeys were obtained with a Toshiba MRT-50A/II (0.5T) under anesthesia with pentobarbital. The stereotactic coordinates of PET and MRI were adjusted based on the orbitomeatal (OM) line with monkeys secured in a specially designed head holder. At least 1 month before the PET study, an acrylic plate, with which the monkey was fixed to the monkey chair, was attached to the head under pentobarbital anesthesia as described previously.
Chain of α7 nAChRs (Macaca mulatta, UniProt Q866A2) (Q866A2 23-502): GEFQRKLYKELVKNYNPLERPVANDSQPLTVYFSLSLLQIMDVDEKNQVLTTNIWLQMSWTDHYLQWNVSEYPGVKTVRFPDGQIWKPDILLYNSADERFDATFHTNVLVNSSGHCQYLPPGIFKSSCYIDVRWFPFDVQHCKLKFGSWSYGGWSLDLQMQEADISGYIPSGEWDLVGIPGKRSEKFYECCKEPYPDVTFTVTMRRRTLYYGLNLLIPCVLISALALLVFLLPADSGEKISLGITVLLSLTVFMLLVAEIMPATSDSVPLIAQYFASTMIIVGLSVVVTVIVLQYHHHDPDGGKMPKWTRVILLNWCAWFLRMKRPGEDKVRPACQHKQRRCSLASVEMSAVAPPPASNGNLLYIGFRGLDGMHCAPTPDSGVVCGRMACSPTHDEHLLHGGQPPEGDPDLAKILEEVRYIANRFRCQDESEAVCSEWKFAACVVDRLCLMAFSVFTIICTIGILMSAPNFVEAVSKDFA
PET data were collected on a high-resolution PET scanner (SHR-7700; Hamamatsu Photonics K.K., Hamamatsu, Japan). The camera consists of 16 detector rings and acquires 20 slices at a center-to-center interval of 3.6 mm with a transaxial resolution of 2.6 mm full width at half maximum. After an overnight fast, the monkey was fixed to the monkey chair with stereotactic coordinates aligned parallel to the OM line. A cannula was implanted in the posterior tibial vein, and [^11C]A-582941 or [^11C]A-844606 (1152–1336 MBq/26.8–63.1 nmol) was injected into the monkey through the venous cannula. PET images were acquired over 91 min (10 sec ×6 frames, 30 sec ×6 frames, 1 min ×12 frames, and 3 min ×25 frames). PET scans were reconstructed using a filtered backprojection method in a 100×100 matrix, with a voxel size of 1.2 mm ×1.2 mm ×3.6 mm. Summed image of late phase (from 70 to 91 min post-injection) was calculated as a static SUV (activity/ml tissue)/(injected activity/g body weight) image. Each MRI was coregistered to an early (from 0 to 20 min) summed image using normalized mutual information, and ROIs were placed on the summed image with reference to the coregistered MRI. Three monkeys underwent [^11C]A-582941 scan morning, and then two of the three monkeys underwent [^11C]A-844606 afternoon (baseline). Within 6 months the last one of the three monkeys underwent two [^11C]A-844606 scans in the baseline (morning) and blocking (afternoon) conditions 30 min after injection of SSR180711 (5.0 mg/kg, i.v.), and the fourth monkey underwent two [^11C]A-582941 scans in the baseline and blocking conditions in the same way.
For the semi-quantitative analysis of PET data, arterial samples were obtained every 8 sec from injection to 64 sec, and then again at 1.5, 2.5, 4, 6, 10, 20, 30, 45, 60, and 90 min after each tracer injection. Blood samples were centrifuged to separate the plasma, weighed, and subjected to radioactivity measurement. For metabolite analysis, methanol was added to some plasma samples, the resulting solutions were centrifuged, and the supernatants were developed with TLC plates (AL SIL G/UV; Whatman, Kent, UK) using a mobile phase of dichloromethane/diethyl ether/ethanol/triethylamine (20/20/2/2, v/v/v/v). At each sampling time point, the ratio of radioactivity in the unmetabolized fraction to that in the total plasma (metabolite plus unmetabolite) was determined using a phosphoimaging plate (BAS-1500 MAC; Fuji Film Co., Tokyo, Japan). The pTACs corrected for metabolite were obtained. The tTACs in each region of interest (ROI) in the brain were calculated as the %ID/ml or as a standardized uptake value (SUV), (activity/ml tissue)/(injected activity/g body weight). Using the tTACs and the metabolite-corrected pTAC, the V T for each tracer was evaluated by Logan graphical analysis.

Series [9] is classed as in vivo, mice. Particulars: mouse, in vivo, iv. The protocol:
Each tracer was intravenously injected into mice, and then the animals were killed by cervical dislocation at 1, 5, 15, 30 and 60 min after injection (n = 4). The body weight of the mice was 34.7±1.2 g. The injected doses of tracers were 2 MBq/0.049–0.051 nmol. Blood was collected by heart puncture and tissues were harvested. The carbon-11 in the samples was counted with an auto-gamma-counter (LKB Wallac Compu-gamma 1282CS, Turku, Finland) and the tissues were weighed. The tissue uptake of carbon-11 was expressed as the %ID/g.

For series [10], the target named is α7 nAChRs. Particulars: read-out: KD for α-bungarotoxin; cited from earlier work.

Chain of α7 nAChRs (Mus musculus, UniProt P49582) (P49582 23-502): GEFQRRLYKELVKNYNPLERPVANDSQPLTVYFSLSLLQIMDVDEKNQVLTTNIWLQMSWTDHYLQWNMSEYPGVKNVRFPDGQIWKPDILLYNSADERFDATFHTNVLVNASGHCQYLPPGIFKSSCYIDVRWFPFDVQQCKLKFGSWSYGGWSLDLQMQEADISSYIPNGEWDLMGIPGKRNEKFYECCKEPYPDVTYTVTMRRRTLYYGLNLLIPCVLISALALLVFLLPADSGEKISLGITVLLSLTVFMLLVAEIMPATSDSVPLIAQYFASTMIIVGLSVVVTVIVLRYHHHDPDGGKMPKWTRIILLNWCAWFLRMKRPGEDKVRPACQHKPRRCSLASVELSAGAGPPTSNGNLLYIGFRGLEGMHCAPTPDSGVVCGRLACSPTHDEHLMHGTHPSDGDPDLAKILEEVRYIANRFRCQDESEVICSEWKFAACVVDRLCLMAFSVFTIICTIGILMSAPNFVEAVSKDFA

For `c1cncc(OC[C@@H]2CCN2)c1` [A-85380, 3-(2(S)-azetidynilmethoxy)pyridine], the Ki at α4β2 [1] (read-out: K i α4β2) was 0.04 nM. The Ki at α4β2 [2] is 0.05 nM. At α7 nAChRs [3], the “% Injected dose/g tissue, Blood” value is 0.85±0.06 % Injected dose/g tissue and 0.54±0.12 % Injected dose/g tissue; the “% Injected dose/g tissue, Cerebellum” value is 3.76±0.50 % Injected dose/g tissue and 6.22±1.26 % Injected dose/g tissue; the “% Injected dose/g tissue, Cerebral cortex” value is 4.53±0.61 % Injected dose/g tissue and 7.57±1.48 % Injected dose/g tissue; the “% Injected dose/g tissue, Hippocampus” value was 3.92±0.54 % Injected dose/g tissue and 5.58±1.26 % Injected dose/g tissue. Moreover, on α7 nAChRs [3], the “% Injected dose/g tissue, Hypothalamus” value was 3.97±0.65 % Injected dose/g tissue and 5.00±0.96 % Injected dose/g tissue; the “% Injected dose/g tissue, Medulla oblongata” value was 3.99±0.49 % Injected dose/g tissue and 5.46±1.15 % Injected dose/g tissue; the “% Injected dose/g tissue, Midbrain” value was 4.52±0.68 % Injected dose/g tissue and 6.84±1.71 % Injected dose/g tissue; the “% Injected dose/g tissue, Striatum” value was 4.33±0.75 % Injected dose/g tissue and 6.47±1.38 % Injected dose/g tissue. Moreover, the “% Injected dose/g tissue, Whole brain” value on α7 nAChRs [3] was 4.26±0.57 % Injected dose/g tissue and 6.64±1.33 % Injected dose/g tissue.
Take `CN1CC2CN(c3ccc(-c4ccccc4)nn3)CC2C1` (stereo not drawn) [A-582941, 2-methyl-5-[6-phenylpyridazine-3-yl]octahydropyrrolo[3,4-c]pyrrole]: the “displacement of binding of >75 binding sites” value in the series with >75 binding sites is “did not show significant displacement”. In series [4], the “clog P” value is given as 2.3; the “pKa, N-methylated tertiary amine” value is listed as 8.75; the “pKa, aminopyridazine” value was 4.44. The “log D at pH 7.4” value in [4] (pH 7.4) is 1.0. Further, the “displacement of [^3H]-BRL 43694 (Granisetron) binding” value in the series on 5-HT3 receptors [5] (at 10 µM) is reported as greater than 85%. At 5-HT3 receptors [5] (read-out: K i for 5-HT3 receptors), the Ki was 154 nM. In addition, the Ki in [6] was greater than 100000 nM. In addition, on α7 nAChRs [3], the “% Injected dose/g tissue, Blood” value was 0.61±0.07 % Injected dose/g tissue; the “% Injected dose/g tissue, Cerebellum” value is on record as 5.17±0.97 % Injected dose/g tissue; the “% Injected dose/g tissue, Cerebral cortex” value is reported as 8.38±1.22 % Injected dose/g tissue; the “% Injected dose/g tissue, Hippocampus” value was found to be 6.48±1.31 % Injected dose/g tissue. Besides, at α7 nAChRs [3], the “% Injected dose/g tissue, Hypothalamus” value is on record as 4.76±1.17 % Injected dose/g tissue; the “% Injected dose/g tissue, Medulla oblongata” value is listed as 5.58±1.26 % Injected dose/g tissue; the “% Injected dose/g tissue, Midbrain” value came out at 5.80±1.46 % Injected dose/g tissue; the “% Injected dose/g tissue, Striatum” value was 6.81±1.05 % Injected dose/g tissue. The “% Injected dose/g tissue, Whole brain” value on α7 nAChRs [3] is reported as 6.71±1.09 % Injected dose/g tissue. The “K i for 5-HT3 receptors relative to that for α7 nAChRs” value on 5-HT3 receptors [7] is recorded as roughly 15 fold.
Consider `O=C(Oc1ccc(Br)cc1)N1CCN2CCC1CC2` [SSR180711], for which the IC50 in the series with α4β2 [1] (human receptor) is greater than 50000 nM. At α7 nAChRs [3], the “% Injected dose/g tissue, Cerebellum” value is 3.32±0.25 % Injected dose/g tissue and 5.10±0.69 % Injected dose/g tissue; the “% Injected dose/g tissue, Cerebral cortex” value was 5.02±0.46 % Injected dose/g tissue and 8.43±1.07 % Injected dose/g tissue; the “% Injected dose/g tissue, Hippocampus” value is 4.63±0.51 % Injected dose/g tissue and 6.26±0.64 % Injected dose/g tissue; the “% Injected dose/g tissue, Hypothalamus” value is 3.49±0.36 % Injected dose/g tissue and 4.74±0.70 % Injected dose/g tissue. At α7 nAChRs [3], the “% Injected dose/g tissue, Medulla oblongata” value is 3.15±0.14 % Injected dose/g tissue and 5.35±0.33 % Injected dose/g tissue; the “% Injected dose/g tissue, Midbrain” value was 3.91±0.45 % Injected dose/g tissue and 6.69±0.79 % Injected dose/g tissue; the “% Injected dose/g tissue, Striatum” value is 4.19±1.04 % Injected dose/g tissue and 7.32±1.84 % Injected dose/g tissue; the “% Injected dose/g tissue, Whole brain” value was 4.21±0.39 % Injected dose/g tissue and 6.82±0.64 % Injected dose/g tissue.
On to `[11CH3]N1CC2CN(c3ccc4oc5ccccc5c(=O)c4c3)CC2C1` (stereo not drawn) [[^11C]A-844606, 2-(5-[^11C]Methyl-hexahydro-pyrrolo[3,4-c]pyrrol-2-yl)-xanthene-9-one], for which, on α7 nAChRs [8] (male), the “V T Baseline, Cerebellum” value stood at 95.9 mL/g; the “V T Baseline, Frontal cortex” value worked out at 132.2 mL/g; the “V T Baseline, Hippocampus” value worked out at 123.1 mL/g; the “V T Baseline, Thalamus” value was found to be 141.5 mL/g. Further, at α7 nAChRs [8] (male), the “V T SSR180711, Cerebellum” value stood at 52.8 mL/g; the “V T SSR180711, Frontal cortex” value was 65.3 mL/g; the “V T SSR180711, Hippocampus” value turned out to be 57.5 mL/g; the “V T SSR180711, Thalamus” value is 69.3 mL/g. For the same compound, at α7 nAChRs [8] (male), the “V T, cerebellum (mean ± SD)” value was found to be 95.2±32.8; the “V T, cerebellum (range)” value was 62.1–127.7; the “V T, frontal cortex (mean ± SD)” value was 130.9±40.4; the “V T, frontal cortex (range)” value is 89.8–170.6. Also, at α7 nAChRs [8] (male), the “V T, hippocampus (mean ± SD)” value came to 118.5±33.6; the “V T, hippocampus (range)” value is 82.9–149.6; the “V T, thalamus (mean ± SD)” value was found to be 138.6±42.3; the “V T, thalamus (range)” value is on record as 95.0–179.4. Besides, on α7 nAChRs [8] (male), the “time at which brain radioactivity reached a plateau” value was 40 to 60 min and the “time at which radioactivity in the cerebellum reached a plateau” value was found to be 40 min. Also, on α7 nAChRs [8], the “% decrease of V T, Cerebellum” value is listed as 45.0%; the “% decrease of V T, Frontal cortex” value came to 50.6%; the “% decrease of V T, Hippocampus” value stood at 53.3%; the “% decrease of V T, Thalamus” value amounted to 51.0%. The “decrease of V T by pretreatment with SSR180711” value on α7 nAChRs [8] is roughly 50%. The “time of peak radioactivity in the brain” value in [9] is given as 30 min. For the same compound, at α7 nAChRs [3], the “% Injected dose/g tissue, Blood” value was 0.57±0.11 % Injected dose/g tissue; the “% Injected dose/g tissue, Cerebellum” value was found to be 4.54±0.63 % Injected dose/g tissue; the “% Injected dose/g tissue, Cerebral cortex” value was determined as 7.63±0.98 % Injected dose/g tissue; the “% Injected dose/g tissue, Hippocampus” value was found to be 4.46±0.90 % Injected dose/g tissue. Moreover, on α7 nAChRs [3], the “% Injected dose/g tissue, Hypothalamus” value turned out to be 4.21±1.55 % Injected dose/g tissue; the “% Injected dose/g tissue, Medulla oblongata” value is recorded as 5.25±0.95 % Injected dose/g tissue; the “% Injected dose/g tissue, Midbrain” value was 5.43±0.75 % Injected dose/g tissue; the “% Injected dose/g tissue, Striatum” value came to 5.01±2.00 % Injected dose/g tissue. The “% Injected dose/g tissue, Whole brain” value at α7 nAChRs [3] amounted to 5.83±0.56 % Injected dose/g tissue.
α-bungarotoxin: the Kd on α7 nAChRs [10] is 1.67 nM.
